Test results: patent publication US20250312352A1, “GLP-1R MODULATING COMPOUNDS” (Gilead Sciences, Inc., priority 2021, published 2025)

Target: T1, GLP-1R (Homo sapiens, UniProt P43220)
T1 construct: host or cells: CHO cells
Experiment: GLP-1R activation cAMP assay (Assay 1 or Assay 2)
Assay type: cell-based
Settings: cAMP increase in CHO cells stably expressing GLP-1R; compounds run on one of the two cAMP assays
Outline: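 CHO cells stably expressing human GLP-1R were incubated 1 h in HBSS/20 mM HEPES/0.1% BSA, then exposed to 10-point agonist dilutions for 30 min at 37 °C. cAMP increase was measured with an HTRF Gs dynamic kit; EC50 from sigmoidal fit of response versus log concentration.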

T1 sequence (P43220 24-463): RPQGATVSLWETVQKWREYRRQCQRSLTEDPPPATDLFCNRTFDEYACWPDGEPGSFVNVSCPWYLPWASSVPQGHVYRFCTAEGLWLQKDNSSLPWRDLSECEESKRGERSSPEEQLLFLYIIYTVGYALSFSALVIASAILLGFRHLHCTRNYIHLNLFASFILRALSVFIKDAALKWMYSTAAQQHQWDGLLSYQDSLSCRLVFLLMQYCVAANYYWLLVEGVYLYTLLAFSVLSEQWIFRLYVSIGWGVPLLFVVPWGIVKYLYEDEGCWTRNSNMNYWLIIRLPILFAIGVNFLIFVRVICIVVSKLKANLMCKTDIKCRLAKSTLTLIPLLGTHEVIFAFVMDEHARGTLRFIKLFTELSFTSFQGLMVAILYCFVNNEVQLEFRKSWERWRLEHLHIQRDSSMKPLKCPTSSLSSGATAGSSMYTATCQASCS

Row | SMILES | EC50
1 | O=C(O)c1ccc2nc(Cc3cc(F)c(-c4cccc(OCc5ccc(C#Cc6cnc(Cl)nc6)cc5)n4)cc3F)n(C[C@@H]3CCO3)c2c1 [Example 403, (S)-2-(4-(6-((4-((2-chloropyrimidin-5-yl)ethynyl)benzyl)oxy)pyridin-2-yl)-2,5-difluorobenzyl)-1-(oxetan-2-ylmethyl)-1H-benzo[d]imidazole-6-carboxylic acid] | 0.096 nM
2 | N#Cc1ccc(C#Cc2cnc(COc3cccc(-c4cc(F)c(Cc5nc6ccc(C(=O)O)cc6n5C[C@@H]5CCO5)cc4F)n3)nc2)cc1 [Example 404, (S)-2-(4-(6-((5-((4-cyanophenyl)ethynyl)pyrimidin-2-yl)methoxy)pyridin-2-yl)-2,5-difluorobenzyl)-1-(oxetan-2-ylmethyl)-1H-benzo[d]imidazole-6-carboxylic acid] | 0.689 nM
3 | O=C(O)c1ccc2nc(Cc3cc(F)c(-c4cccc(OCc5ccc(C#Cc6cncnc6)cc5)n4)cc3F)n(C[C@@H]3CCO3)c2c1 [Example 405, (S)-2-(2,5-difluoro-4-(6-((4-(pyrimidin-5-ylethynyl)benzyl)oxy)pyridin-2-yl)benzyl)-1-(oxetan-2-ylmethyl)-1H-benzo[d]imidazole-6-carboxylic acid] | 0.363 nM
4 | O=C(O)c1ccc2nc(Cc3cc(F)c(-c4ccc(F)c(OCc5ncc(C(F)F)s5)n4)cc3F)n(C[C@@H]3CCO3)c2c1 [Example 406, (S)-2-(4-(6-((5-(difluoromethyl)thiazol-2-yl)methoxy)-5-fluoropyridin-2-yl)-2,5-difluorobenzyl)-1-(oxetan-2-ylmethyl)-1H-benzo[d]imidazole-6-carboxylic acid] | 0.385 nM
5 | O=C(O)c1cc(F)c2nc(Cc3cc(F)c(-c4ccc(F)c(OCc5ncc(C(F)F)s5)n4)cc3F)n(C[C@@H]3CCO3)c2c1 [Example 407, (S)-2-(4-(6-((5-(difluoromethyl)thiazol-2-yl)methoxy)-5-fluoropyridin-2-yl)-2,5-difluorobenzyl)-4-fluoro-1-(oxetan-2-ylmethyl)-1H-benzo[d]imidazole-6-carboxylic acid] | 0.239 nM
6 | O=C(O)c1cc(F)c2nc(Cc3cc(F)c(-c4ccnc(OCc5ncc(C(F)(F)F)s5)n4)cc3F)n(C[C@@H]3CCO3)c2c1 [Example 408, (S)-2-(2,5-difluoro-4-(2-((5-(trifluoromethyl)thiazol-2-yl)methoxy)pyrimidin-4-yl)benzyl)-4-fluoro-1-(oxetan-2-ylmethyl)-1H-benzo[d]imidazole-6-carboxylic acid] | 0.381 nM
7 | C[C@H]1COC[C@H]1n1c(Cc2cc(F)c(-c3ccc(F)c(OCc4ncc(C(F)(F)F)s4)n3)cc2F)nc2ccc(C(=O)O)cc21 [Example 409, 2-(2,5-difluoro-4-(5-fluoro-6-((5-(trifluoromethyl)thiazol-2-yl)methoxy)pyridin-2-yl)benzyl)-1-((3S,4R)-4-methyltetrahydrofuran-3-yl)-1H-benzo[d]imidazole-6-carboxylic acid] | 0.695 nM
8 | COc1nnc(COc2nc(-c3cc(F)c(Cc4nc5c(F)cc(C(=O)O)cc5n4CC4(CF)CC4)cc3F)ccc2F)s1 [Example 410, 2-(2,5-difluoro-4-(5-fluoro-6-((5-methoxy-1,3,4-thiadiazol-2-yl)methoxy)pyridin-2-yl)benzyl)-4-fluoro-1-((1-(fluoromethyl)cyclopropyl)methyl)-1H-benzo[d]imidazole-6-carboxylic acid] | 0.551 nM
9 | COc1nnc(COc2cccc(-c3cc(F)c(Cc4nc5c(F)cc(C(=O)O)cc5n4CC4(CF)CC4)cc3F)n2)s1 [Example 411, 2-(2,5-difluoro-4-(6-((5-methoxy-1,3,4-thiadiazol-2-yl)methoxy)pyridin-2-yl)benzyl)-4-fluoro-1-((1-(fluoromethyl)cyclopropyl)methyl)-1H-benzo[d]imidazole-6-carboxylic acid] | 0.315 nM
10 | O=C(O)c1cc(F)c2nc(Cc3cc(F)c(-c4cccc(OCc5ncc(C(F)(F)F)s5)n4)cc3F)n(CC3(CF)CC3)c2c1 [Example 412, 2-(2,5-difluoro-4-(6-((5-(trifluoromethyl)thiazol-2-yl)methoxy)pyridin-2-yl)benzyl)-4-fluoro-1-((1-(fluoromethyl)cyclopropyl)methyl)-1H-benzo[d]imidazole-6-carboxylic acid] | 0.099 nM
11 | CC1(C)COC[C@H]1n1c(Cc2cc(F)c(-c3cccc(OCc4ncc(C(F)(F)F)s4)n3)cc2F)nc2ccc(C(=O)O)cc21 [Example 414, (S)-2-(2,5-difluoro-4-(6-((5-(trifluoromethyl)thiazol-2-yl)methoxy)pyridin-2-yl)benzyl)-1-(4,4-dimethyltetrahydrofuran-3-yl)-1H-benzo[d]imidazole-6-carboxylic acid] | 0.318 nM
12 | CC1(C)COC[C@H]1n1c(Cc2cc(F)c(-c3ccc(F)c(OCc4ncc(C(F)(F)F)s4)n3)cc2F)nc2ccc(C(=O)O)cc21 [Example 415, (S)-2-(2,5-difluoro-4-(5-fluoro-6-((5-(trifluoromethyl)thiazol-2-yl)methoxy)pyridin-2-yl)benzyl)-1-(4,4-dimethyltetrahydrofuran-3-yl)-1H-benzo[d]imidazole-6-carboxylic acid] | 0.189 nM
13 | CC1(C)COC[C@H]1n1c(Cc2cc(F)c(-c3ccc(F)c(OCc4ncc(C(F)F)s4)n3)cc2F)nc2ccc(C(=O)O)cc21 [Example 416, (S)-2-(4-(6-((5-(difluoromethyl)thiazol-2-yl)methoxy)-5-fluoropyridin-2-yl)-2,5-difluorobenzyl)-1-(4,4-dimethyltetrahydrofuran-3-yl)-1H-benzo[d]imidazole-6-carboxylic acid] | 0.336 nM
14 | CNC(=O)c1cc(Cl)c(COc2cccc(-c3cc(F)c(Cc4nc5c(F)cc(C(=O)O)cc5n4CC4(CF)CC4)cc3F)n2)cn1 [Example 417, 2-(4-(6-((4-chloro-6-(methylcarbamoyl)pyridin-3-yl)methoxy)pyridin-2-yl)-2,5-difluorobenzyl)-4-fluoro-1-((1-(fluoromethyl)cyclopropyl)methyl)-1H-benzo[d]imidazole-6-carboxylic acid] | 0.26 nM
15 | CC1(C)COC[C@H]1n1c(Cc2cc(F)c(-c3ccnc(OCc4ccc(Cl)s4)n3)cc2F)nc2ccc(C(=O)O)cc21 [Example 418, (S)-2-(4-(2-((5-chlorothiophen-2-yl)methoxy)pyrimidin-4-yl)-2,5-difluorobenzyl)-1-(4,4-dimethyltetrahydrofuran-3-yl)-1H-benzo[d]imidazole-6-carboxylic acid] | 0.384 nM
16 | CC1(C)COC[C@H]1n1c(Cc2cc(F)c(-c3cccc(OCc4sc(C#N)cc4F)n3)cc2F)nc2ccc(C(=O)O)cc21 [Example 419, (S)-2-(4-(6-((5-cyano-3-fluorothiophen-2-yl)methoxy)pyridin-2-yl)-2,5-difluorobenzyl)-1-(4,4-dimethyltetrahydrofuran-3-yl)-1H-benzo[d]imidazole-6-carboxylic acid] | 0.096 nM
17 | CCOc1nnc(COc2nc(-c3cc(Cl)c(Cc4nc5ccc(C(=O)O)cc5n4[C@@H]4COCC4(C)C)cc3C)ccc2F)s1 [Example 420, (S)-2-(2-chloro-4-(6-((5-ethoxy-1,3,4-thiadiazol-2-yl)methoxy)-5-fluoropyridin-2-yl)-5-methylbenzyl)-1-(4,4-dimethyltetrahydrofuran-3-yl)-1H-benzo[d]imidazole-6-carboxylic acid] | 0.178 nM
18 | CCOc1nnc(COc2nc(-c3cc(Cl)c(Cc4nc5c(F)cc(C(=O)O)cc5n4[C@@H]4COCC4(C)C)cc3C)ccc2F)s1 [Example 421, (S)-2-(2-chloro-4-(6-((5-ethoxy-1,3,4-thiadiazol-2-yl)methoxy)-5-fluoropyridin-2-yl)-5-methylbenzyl)-1-(4,4-dimethyltetrahydrofuran-3-yl)-4-fluoro-1H-benzo[d]imidazole-6-carboxylic acid] | 0.087 nM
19 | CCOc1nnc(COc2nc(-c3cc(F)c(Cc4nc5c(F)cc(C(=O)O)cc5n4[C@@H]4COCC4(C)C)cc3C)ccc2F)s1 [Example 422, (S)-1-(4,4-dimethyltetrahydrofuran-3-yl)-2-(4-(6-((5-ethoxy-1,3,4-thiadiazol-2-yl)methoxy)-5-fluoropyridin-2-yl)-2-fluoro-5-methylbenzyl)-4-fluoro-1H-benzo[d]imidazole-6-carboxylic acid] | 0.066 nM
20 | CCOc1nnc(COc2nc(-c3cc(F)c(Cc4nc5c(F)cc(C(=O)O)cc5n4[C@@H]4COCC4(C)C)cc3F)ccc2F)s1 [Example 423, (S)-1-(4,4-dimethyltetrahydrofuran-3-yl)-2-(4-(6-((5-ethoxy-1,3,4-thiadiazol-2-yl)methoxy)-5-fluoropyridin-2-yl)-2,5-difluorobenzyl)-4-fluoro-1H-benzo[d]imidazole-6-carboxylic acid] | 0.023 nM
21 | CCOc1nnc(COc2nc(-c3cc(F)c(Cc4nc5ccc(C(=O)O)cc5n4[C@@H]4COCC4(C)C)cc3F)ccc2F)s1 [Example 424, (S)-1-(4,4-dimethyltetrahydrofuran-3-yl)-2-(4-(6-((5-ethoxy-1,3,4-thiadiazol-2-yl)methoxy)-5-fluoropyridin-2-yl)-2,5-difluorobenzyl)-1H-benzo[d]imidazole-6-carboxylic acid] | 0.027 nM
22 | CC(F)(F)c1cnc(COc2cccc(-c3cc(F)c(Cc4nc5ccc(C(=O)O)cc5n4[C@@H]4COCC4(C)C)cc3F)n2)s1 [Example 425, (S)-2-(4-(6-((5-(1,1-difluoroethyl)thiazol-2-yl)methoxy)pyridin-2-yl)-2,5-difluorobenzyl)-1-(4,4-dimethyltetrahydrofuran-3-yl)-1H-benzo[d]imidazole-6-carboxylic acid] | 0.535 nM
23 | Cc1cc(Cc2nc3c(F)cc(C(=O)O)cc3n2[C@@H]2COCC2(C)C)c(Cl)cc1-c1ccc(F)c(OCc2ncc(C(C)(F)F)s2)n1 [Example 426, (S)-2-(2-chloro-4-(6-((5-(1,1-difluoroethyl)thiazol-2-yl)methoxy)-5-fluoropyridin-2-yl)-5-methylbenzyl)-1-(4,4-dimethyltetrahydrofuran-3-yl)-4-fluoro-1H-benzo[d]imidazole-6-carboxylic acid] | 0.931 nM
